Data reported in ChEMBL document CHEMBL1154786, “Analgesic, anticonvulsant and anti-inflammatory activities of some synthesized benzodiazipine, triazolopyrimidine and bis-imide derivatives” (Eur J Med Chem, 2009).
The source made the active and inactive calls. The calls are words filed in the database; no cut-off is given here.

How the values were obtained:
[1] = Acute toxicity in rat; format: organism-based; settings: in vivo
[2] = tested on: Rattus norvegicus; experiment: Antiinflammatory activity in albino rat assessed as inhibition of increase in plasma PGE2 level at 25 mg/kg, po by EIA; format: functional
[3] = tested on: Rattus norvegicus; experiment: Antiinflammatory activity in albino rat assessed as inhibition of increase in plasma PGE2 level at 50 mg/kg, po by EIA; format: functional
[4] = tested on: Mus musculus; experiment: Anticonvulsant activity in Webster mouse assessed as protection against yohimbine-HCl-induced clonic seizure at 5 mg/kg, ip administered 30 mins before yohimbine-HCl challenge; format: functional
[5] = tested on: Rattus norvegicus; experiment: Antiinflammatory activity in albino rat assessed as protection against carrageenan-induced paw edema at 25 mg/kg, po administered 1 hr before carrageenan challenge measured after 4 hrs; format: functional
[6] = tested on: Rattus norvegicus; experiment: Antiinflammatory activity in albino rat assessed as protection against carrageenan-induced paw edema at 50 mg/kg, po administered 1 hr before carrageenan challenge measured after 4 hrs; format: functional
[7] = tested on: Mus musculus; experiment: Anticonvulsant activity in Webster mouse assessed as protection against yohimbine-HCl-induced clonic seizure at 5 mg/kg, ip administered 30 mins before yohimbine-HCl challenge relative to carbamazepine; format: functional
[8] = tested on: Mus musculus; experiment: Analgesic activity in Webster mouse assessed as normal reaction time at 5 mg/kg, sc after 10-120 mins by hot plate assay relative to valdecoxib; format: functional; settings: route subcutaneous

| Structure (SMILES) | LD50 [1] [mg/kg] | inhibition in vivo at 25 mg/kg [2] [%] | inhibition in vivo at 50 mg/kg [3] [%] | ED50 ([4]; route intraperitoneal) [mg/kg] | Activity [5] [%] | Activity [6] [%] | Activity ([7]; route intraperitoneal) | Activity [8] [%] | ED50 [4] | Activity [7] |
| --- | --- | --- | --- | --- | --- | --- | --- | --- | --- | --- |
| CC1=CC(c2ccccc2)Nc2nnc(C)n21 (stereo not given) | 1.97 | – | – | – | – | – | – | – | – | – |
| CC1=CC(c2ccccc2)N=C(n2cc(C)c(C)n2)N1 (stereo not given) | 1.79 | – | – | – | – | – | – | – | – | – |
| CC1=CC(c2ccccc2)NC(=S)N1 (stereo not given) | 1.8 | 78.4 | 93.5 | 32 | 84.52 | 96.1 | 1 | 130 | – | – |
| CC1=CC(c2ccccc2)N=C(NN2C(=O)c3ccc4c5c(ccc(c35)C2=O)C(=O)N(NC2=NC(c3ccccc3)C=C(C)N2)C4=O)N1 (stereo not given) | 1.78 | 58.8 | 65 | 15 | 48.5 | 51.6 | 1.8 | 60 | – | – |
| CC1=Cc2[nH]c(=S)nc(C)c2C(c2ccccc2)C1 (stereo not given) | 1.87 | – | – | – | – | – | – | 60 | – | – |
| CC1=CC(c2ccccc2)N=C(Nn2c(=O)c3cc4c(=O)n(NC5=NC(c6ccccc6)C=C(C)N5)c(=O)c4cc3c2=O)N1 (stereo not given) | 1.68 | – | – | – | – | – | – | – | – | – |
| CC1=CC(c2ccccc2)NC(=S)N1CN1CCOCC1 (stereo not given) | 1.69 | 90.3 | – | 13 | 85.84 | 98.41 | 2.3 | 60 | – | – |
| CC1=CC(c2ccccc2)N=C(NN2C(=O)c3cccc4cccc(c34)C2=O)N1 (stereo not given) | 1.85 | 88.7 | 95.6 | – | 87.8 | 93.15 | – | 60 | inactive | inactive |
| CC1=CC(c2ccccc2)NC(NN)N1 (stereo not given) | 1.88 | – | – | – | – | – | – | – | – | – |
| CCOC(=O)C1C(=O)C=C(C)CC1c1ccccc1 (stereo not given) | 1.74 | – | 54.5 | 50 | – | 60.26 | 0.68 | 60 | – | – |
| CC1=Cc2c(c(C)nn2-c2ccccc2)C(c2ccccc2)C1 (stereo not given) | 1.92 | – | – | – | – | – | – | – | – | – |
| NC(=O)N1c2ccccc2C=Cc2ccccc21 [CARBAMAZEPINE] | – | – | – | 28 | – | – | – | – | – | – |
| CC1=Cc2c(c(=O)[nH]n2-c2ccccc2)C(c2ccccc2)C1 (stereo not given) | 1.86 | 54.9 | 67 | – | 63.9 | 64.8 | – | 60 | inactive | inactive |
| CC1=CC2=NC(=S)NC(=O)C2C(c2ccccc2)C1 (stereo not given) | 1.88 | 72.1 | 82.8 | 15 | 74.38 | 85.24 | 2.04 | 130 | – | – |
| CC(=O)C1C(=O)C=C(C)CC1c1ccccc1 (stereo not given) | 1.72 | – | – | – | – | – | – | – | – | – |
| CC1=CC(c2ccccc2)Nc2n[nH]c(=S)n21 (stereo not given) | 1.8 | – | 66.8 | – | – | 42.38 | – | – | inactive | inactive |
| C[C@]12C=CC(=O)C=C1CC[C@@H]1[C@@H]2[C@@H](O)C[C@@]2(C)[C@H]1CC[C@]2(O)C(=O)CO [PREDNISOLONE] | 1.62 | 77 | 91 | – | 81 | 92 | – | – | – | – |
| CC1=CC(c2ccccc2)Nc2ncnn21 (stereo not given) | 1.75 | 80.7 | 94.6 | 10 | 85.25 | 96.05 | 2.51 | 60 | – | – |
